“And” between values parts separate entries of the source, which are not always exact repeats. Identical values can stand only once. “Also recorded” adds a separate entry of the source.
Key:
Jurkat = experiment: Cell viability CellTiter-Blue assay, Jurkat (Bcl-2-negative); type: cell-based, human; conditions: Bcl-2-negative cell line; for IC50: Homo sapiens, Jurkat, growth inhibition, CellTiter-Blue, 24 h, mean ± SEM
Method: (§1) Human acute myeloid leukemia KG1a and acute T-cell lymphocytic leukemia Jurkat cells were cultured and maintained as previously described. For each experiment, 15,000 cells in 0.1 mL of medium were seeded into a solid-black fluorescence 96-well plate and incubated for 24 h. The cells were treated with different concentrations of the test compounds (from 0.00001 to 100 µM) over a 10-fold dilution series and incubated for 24 h. CellTiter-Blue® solution was added, followed by reading of the fluorescence according to our previous protocol. IC50 values were obtained by using GraphPad Prism 5 software (San Diego, CA, USA). For each concentration, six independent experiments were carried out.

KG1a = experiment: Cell viability CellTiter-Blue assay, KG1a; type: cell-based, human; conditions: for IC50: Homo sapiens, KG-1a, growth inhibition, CellTiter-Blue, 24 h, mean ± SEM
Method: as §1

HeLa = experiment: Cell viability by MTT assay, HeLa; type: cell-based; conditions: Homo sapiens, growth inhibition, 72 h, mean ± SEM
Method: (§2) Human breast cancer (MDA-MB-231) and cervical cancer (HeLa) cells, obtained from the ATCC (Manassas, VA, USA), were maintained as previously described. Cytotoxic effects of the tested compounds were assessed using MTT assay. Briefly, 4000 cells in 0.1 mL of medium (Life Technologies, Paisley, UK) were seeded and allowed to adhere for 24 h. The cells were treated with different concentrations of the tested compounds (from 0.00001 to 100 µM) and incubated for 72 h. In total, 20 µL of (5 mg/mL) MTT reagent (3-[4,5-dimethylthiazol-2-yl]-2,5-diphenyl tetrazolium bromide) in PBS was added and incubated for 4 h. The developed purple colour following the addition of DMSO was measured using a Multiskan Go machine (spectrophotometer) at 570 nm absorbance. Each concentration experiment was repeated independently 6 times to establish reproducibility. The percentage cell viability was calculated following the formula below, and IC50 values were obtained by using GraphPad Prism 5 software (San Diego, CA, USA). Cell viability (%) = [(OD test − OD blank) ÷ (OD negative control − OD blank)] × 100(1)

MDA-MB-231 = experiment: Cell viability by MTT assay, MDA-MB-231; type: cell-based; conditions: Homo sapiens, growth inhibition, 72 h, mean ± SEM
Method: as §2

His-tagged Bcl-2 protein = His-tagged Bcl-2 protein (Homo sapiens, UniProt P10415); experiment: Competitive ELISA binding assay (interruption of Bcl-2-Bim interaction); conditions: for IC50: competition with Bim peptide, mean and SEM of three independent measurements
Chain of His-tagged Bcl-2 protein (P10415 whole entry): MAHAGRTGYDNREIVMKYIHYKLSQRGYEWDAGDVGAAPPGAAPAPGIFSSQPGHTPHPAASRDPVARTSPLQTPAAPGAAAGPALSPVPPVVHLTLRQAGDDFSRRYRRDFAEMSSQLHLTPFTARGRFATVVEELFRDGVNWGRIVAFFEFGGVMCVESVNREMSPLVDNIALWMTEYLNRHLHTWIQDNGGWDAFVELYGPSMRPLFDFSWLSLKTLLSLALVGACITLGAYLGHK
Method: ELISA assay was performed to evaluate the ability of the compounds to compete with Bim protein and inhibit its interaction with Bcl-2 protein.. The addition of His-tagged Bcl-2 protein to a biotinylated Bim-coated plate according to our previously published protocol was followed by the addition of anti-His antibody (Abcam, Cambridge, UK) containing horseradish peroxidase enzyme (Qiagen, Crawley, UK), o-phenylenediamine (Sigma-Aldrich, UK) and hydrogen peroxide. The optical density was determined using a plate reader at wavelength of 450 nm. The experiments were carried out on three separate occasions, including both negative and positive controls. A plot of log nM concentration for each inhibitor against the percentage reduction in the Bim peptide was created, using non-linear regression curve analysis (GraphPad Prism 5, San Diego, CA, USA) and a software used to generate IC50 for the Bcl-2 inhibition activity.

[1] = tested on: Bcl-2-expressing human cancer cell lines (MDA-MB-231, HeLa and KG1a); experiment: Growth inhibition of Bcl-2-expressing human cancer cell lines (summary); type: cell-based; conditions: span over MDA-MB-231, HeLa and KG1a, read-out: IC50 against Bcl-2-expressing cell lines
Method: as §2, with “Cell viability (%) = [(OD test − OD blank) ÷ (OD negative control − OD blank)] × 100(1)” left out
Human acute myeloid leukemia KG1a and acute T-cell lymphocytic leukemia Jurkat cells were cultured and maintained as previously described. For each experiment, 15,000 cells in 0.1 mL of medium were seeded into a solid-black fluorescence 96-well plate and incubated for 24 h. […] CellTiter-Blue® solution was added, followed by reading of the fluorescence according to our previous protocol. […]

IC50 (Jurkat) [µM] | IC50 (HeLa) [µM] | IC50 (MDA-MB-231) [µM] | melting point [°C] | IC50 (His-tagged Bcl-2 protein) | ELISA IC50 compared to (−)-gossypol positive control (His-tagged Bcl-2 protein; competitive Bcl-2 ELISA) | IC50 [1] [µM] | SMILES | IC50 (KG1a) [µM] | activity against Jurkat cells (in words) (Jurkat) | activity against KG1A cell line (in words) (KG1a; Acute Myeloid Leukemia cell line)
> 100 | 12.5 ± 0.23 | 16.3 ± 0.19 | 201 to 203 |  |  |  | Cc1ccc(-c2nn3c(-c4c[nH]c5ccccc45)nnc3s2)cc1 [Compound 5c, 3-(6-p-Tolyl-[1,2,4]-triazolo[3,4-b]-[1,3,4]-thiadiazol-3-yl)-1H-indole] | > 100 | no activity | inactive
65.1 ± 1.25 | 1.99 ± 0.28 | 7.5 ± 0.98 | 183 to 185 |  |  |  | Fc1cccc(-c2nn3c(-c4c[nH]c5ccccc45)nnc3s2)c1 [Compound 5g, 3-[6-(3-Fluorophenyl)-[1,2,4]-triazolo[3,4-b]-[1,3,4]-thiadiazol-3-yl]-1H-indole] | 8.6 ± 0.22 |  | 
32.2 ± 1.2 | 2.18 ± 0.73 | 3.6 ± 0.28 |  |  |  |  | O=[N+]([O-])c1cccc(-c2nn3c(-c4c[nH]c5ccccc45)nnc3s2)c1 [Compound 5j, 3-[6-(3-Nitrophenyl)-[1,2,4]-triazolo[3,4-b]-[1,3,4]-thiadiazol-3-yl]-1H-indole] | 6.82 ± 0.45 |  | 
> 100 | 1.42 ± 0.17 | 0.35 ± 0.29 | 193 to 195 | 0.45 ± 0.03 µM |  |  | COc1cc(OC)cc(-c2nn3c(-c4c[nH]c5ccccc45)nnc3s2)c1 [Compound 5l, 3-[6-(3,5-Dimethoxyphenyl)-[1,2,4]-triazolo[3,4-b]-[1,3,4]-thiadiazol-3-yl]-1H-indole] | 1.15 ± 0.27 | no activity | 

More lines, now with the values behind:

SMILES | IC50 (Jurkat) [µM] | IC50 (HeLa) [µM] | IC50 (MDA-MB-231) [µM] | melting point [°C] | IC50 (His-tagged Bcl-2 protein) | ELISA IC50 compared to (−)-gossypol positive control (His-tagged Bcl-2 protein; competitive Bcl-2 ELISA) | IC50 [1] [µM] | IC50 (KG1a) [µM] | activity against Jurkat cells (in words) (Jurkat) | activity against KG1A cell line (in words) (KG1a; Acute Myeloid Leukemia cell line)
Sc1nn2c(-c3c[nH]c4ccccc34)nnc2s1 [Compound 4, 3-(1H-Indol-3-yl)-[1,2,4]-triazolo[3,4-b]-[1,3,4]-thiadiazole-6-thiol] | 10.3 ± 0.14 | 18.2 ± 0.6 | 15 ± 0.6 | 170 to 172 |  |  |  | 28.4 ± 0.43 |  | 
Ic1ccc(-c2nn3c(-c4c[nH]c5ccccc45)nnc3s2)cc1 [Compound 5a, 3-[6-(4-Iodophenyl)-[1,2,4]-triazolo[3,4-b]-[1,3,4]-thiadiazol-3-yl]-1H-indole] | 8.12 ± 0.16 | 0.54 ± 0.02 | 2.72 ± 0.32 | 183 to 185 |  |  |  | 1.66 ± 0.03 |  | 
COc1ccc(-c2nn3c(-c4c[nH]c5ccccc45)nnc3s2)cc1 [Compound 5b, 3-[6-(4-Methoxyphenyl)-[1,2,4]-triazolo[3,4-b]-[1,3,4]-thiadiazol-3-yl]-1H-indole] | > 100 | 2.7 ± 0.9 | 1.7 ± 0.61 | 192 to 194 | 1.14 ± 0.09 µM |  |  | 3.14 ± 0.19 | no activity | 
Brc1cccc(-c2nn3c(-c4c[nH]c5ccccc45)nnc3s2)c1 [Compound 5d, 3-[6-(3-Bromophenyl)-[1,2,4]-triazolo[3,4-b]-[1,3,4]-thiadiazol-3-yl]-1H-indole] | 45.5 ± 0.4 | 6.48 ± 0.67 | 4.9 ± 0.75 | 179 to 182 |  |  |  | 20.2 ± 0.46 |  | 
Brc1ccc(-c2nn3c(-c4c[nH]c5ccccc45)nnc3s2)cc1 [Compound 5e, 3-[6-(4-Bromophenyl)-[1,2,4]-triazolo[3,4-b]-[1,3,4]-thiadiazol-3-yl]-1H-indole] | > 100 | 9.8 ± 0.3 | 8.29 ± 0.9 | 196 to 198 | 4.6 ± 0.19 µM |  |  | 4.9 ± 0.73 | no activity | 
Clc1cccc(-c2nn3c(-c4c[nH]c5ccccc45)nnc3s2)c1 [Compound 5f, 3-[6-(3-Chlorophenyl)-[1,2,4]-triazolo[3,4-b]-[1,3,4]-thiadiazol-3-yl]-1H-indole] | 20.5 ± 0.52 | 3.6 ± 0.52 | 12.5 ± 0.66 | 185 to 187 |  |  |  | 10.2 ± 0.65 |  | 
O=[N+]([O-])c1ccc(-c2nn3c(-c4c[nH]c5ccccc45)nnc3s2)cc1 [Compound 5h, 3-[6-(4-Nitrophenyl)-[1,2,4]-triazolo[3,4-b]-[1,3,4]-thiadiazol-3-yl]-1H-indole] | 58.1 ± 1.3 | 22.1 ± 0.45 | 3.16 ± 0.32 | 196 to 198 |  |  |  | 34.5 ± 0.3 |  | 
FC(F)(F)c1ccc(-c2nn3c(-c4c[nH]c5ccccc45)nnc3s2)cc1 [Compound 5i, 3-[6-(4-Trifluoromethylphenyl)-[1,2,4]-triazolo[3,4-b]-[1,3,4]-thiadiazol-3-yl]-1H-indole] | > 100 | 2.7 ± 0.19 | 4.22 ± 0.38 | 194 to 196 | 1.74 ± 0.15 µM |  |  | 2.19 ± 0.72 | no activity | 
COc1ccc(-c2nn3c(-c4c[nH]c5ccccc45)nnc3s2)c(OC)c1 [Compound 5k, 3-[6-(2,4-Dimethoxyphenyl)-[1,2,4]-triazolo[3,4-b]-[1,3,4]-thiadiazol-3-yl]-1H-indole] | > 100 | 0.57 ± 0.08 | 0.7 ± 0.3 | 178 to 180 | 0.32 µM and 0.3 µM and 0.34 µM and 0.36 µM | two-fold lower | 0.31 to 0.7 | 0.31 ± 0.32 | without inhibiting; also recorded: no activity | 
Cc1cc2c(C(C)C)c(O)c(O)c(C=O)c2c(O)c1-c1c(C)cc2c(C(C)C)c(O)c(O)c(C=O)c2c1O [Gossypol, gossypol, reference compound] | 18.1 ± 1.3 | 4.43 ± 0.54 | 5.5 ± 0.35 |  |  |  |  | 4.2 ± 0.35 |  | 
